Earlier results on 1 substance are cited in patent publication US4312857A, “Novel derivatives of beta-endorphin, intermediates therefor and compositions and methods employing said derivatives” (The United States of America as represented by the Veterans, priority 1977, dated 1982).

One data set deals with rat. The settings on record: injected directly into the brain of the rat.
For data set [1], the system named is partially purified brain opiate receptor sites.

In the case of “H-Tyr-Gly-Gly-Phe-Met-OH [methionine enkephalin]”, the analgesic effect entry in the data set on rat is “weak analgesic agent of short duration”. Further, in data set [1], the “binding to partially purified brain opiate receptor sites” value is given as “binds stereo-specifically”.
